# Source: patent US20030129629A1, “Methods and compositions for the identification, assessment, prevention, and therapy of human cancers” (Millennium Pharmaceuticals, Inc., priority 2000, published 2003)
# Read-outs that look alike come from different tables or passages of the source.
# Key:
# [1] = system: 60 cancer cell lines (NCI 60 cancer cell line series); details: cited from earlier work
# [2] = system: 60 cancer cell lines (NCI 60 cancer cell line series); experiment: NCI-DTP in vitro cancer screen, sulforhodamine B (SRB) growth inhibition, 48 hour exposure; assay type: cell-based, human
# Method in brief: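 Potency is given as mean −log{GI50} from dose–response curves, manually binned into Low, Medium or High sensitivity. Sixty NCI-DTP tumour lines were treated 48 h with a duplicate, five-dose, ten-fold dilution series, and growth read by SRB staining of cell mass.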
smiles,measurement,setting,value
COc1cc([C@@H]2c3cc4c(cc3[C@@H](O[C@@H]3O[C@@H]5CO[C@@H](C)O[C@H]5[C@H](O)[C@H]3O)[C@H]3COC(=O)[C@H]23)OCO4)cc(OC)c1O [Etoposide],−Log (GI50),[1]; Melanoma SK-MEL-2 CL10005,4.5
same,−Log (GI50),[1]; Melanoma SK-MEL-5 CL10007,5.0
same,−Log (GI50),[1]; Melanoma SK-MEL-28 CL10008,4.4
same,−Log (GI50),[1]; Melanoma UACC-62 CL10020,4.9
same,−Log (GI50),[1]; Melanoma UACC-257 CL10021,4.2
same,−Log (GI50),[1]; NSCLC A549/ATCC CL1004,5.2
same,−Log (GI50),[1]; NSCLC EKVX CL1008,4.4
same,−Log (GI50),[1]; NSCLC HOP-62 CL1026,5.5
same,−Log (GI50),[1]; NSCLC HOP-92 CL1029,4.8
same,−Log (GI50),[1]; NSCLC NCI-H226 CL1013,5.2
same,"classification of cell line as Low(1), Medium(2), High(3) sensitivity to compound",[2]; Breast BT-549 CL5013,2
same,"classification of cell line as Low(1), Medium(2), High(3) sensitivity to compound",[2]; Breast HS-578T CL5006,3
same,"classification of cell line as Low(1), Medium(2), High(3) sensitivity to compound",[2]; Breast MCF7(I) CL5001,2
same,"classification of cell line as Low(1), Medium(2), High(3) sensitivity to compound",[2]; Breast MCF7/ADRr CL5002,1
same,"classification of cell line as Low(1), Medium(2), High(3) sensitivity to compound",[2]; Breast MDA-MB-231 CL5005,2
same,"classification of cell line as Low(1), Medium(2), High(3) sensitivity to compound",[2]; Breast MDA-MB-435 CL5011,2
same,"classification of cell line as Low(1), Medium(2), High(3) sensitivity to compound",[2]; Breast MDA-N CL5012,3
same,"classification of cell line as Low(1), Medium(2), High(3) sensitivity to compound",[2]; Breast T-47D CL5014,3
same,"classification of cell line as Low(1), Medium(2), High(3) sensitivity to compound",[2]; CNS SF-268 CL12014,2
same,"classification of cell line as Low(1), Medium(2), High(3) sensitivity to compound",[2]; CNS SF-295 CL12015,2
same,"classification of cell line as Low(1), Medium(2), High(3) sensitivity to compound",[2]; CNS SF-539 CL12016,2
same,"classification of cell line as Low(1), Medium(2), High(3) sensitivity to compound",[2]; CNS SNB-19 CL12002,2
same,"classification of cell line as Low(1), Medium(2), High(3) sensitivity to compound",[2]; CNS SNB-75(I) CL12005,2
same,"classification of cell line as Low(1), Medium(2), High(3) sensitivity to compound",[2]; CNS U251(I) CL12009,2
same,"classification of cell line as Low(1), Medium(2), High(3) sensitivity to compound",[2]; Colon COLO-250 CL4010,1
same,"classification of cell line as Low(1), Medium(2), High(3) sensitivity to compound",[2]; Colon HCC-2998 CL4002,2
same,"classification of cell line as Low(1), Medium(2), High(3) sensitivity to compound",[2]; Colon HCT-15 CL4015,2
same,"classification of cell line as Low(1), Medium(2), High(3) sensitivity to compound",[2]; Colon HCT-116 CL4003,2
same,"classification of cell line as Low(1), Medium(2), High(3) sensitivity to compound",[2]; Colon HT29(I) CL4001,1
same,"classification of cell line as Low(1), Medium(2), High(3) sensitivity to compound",[2]; Colon KM12 CL4017,2
same,"classification of cell line as Low(1), Medium(2), High(3) sensitivity to compound",[2]; Colon SW-620 CL4009,2
same,"classification of cell line as Low(1), Medium(2), High(3) sensitivity to compound",[2]; Leukemia CCRF-CEM(I) CL7003,2
same,"classification of cell line as Low(1), Medium(2), High(3) sensitivity to compound",[2]; Leukemia HL-60(I) CL7008,2
same,"classification of cell line as Low(1), Medium(2), High(3) sensitivity to compound",[2]; Leukemia K562(I) CL7005,2
same,"classification of cell line as Low(1), Medium(2), High(3) sensitivity to compound",[2]; Leukemia MOLT-4 CL7006,3
same,"classification of cell line as Low(1), Medium(2), High(3) sensitivity to compound",[2]; Leukemia RPMI-8226(I) CL7010,2
same,"classification of cell line as Low(1), Medium(2), High(3) sensitivity to compound",[2]; Leukemia SR CL7019,3
same,"classification of cell line as Low(1), Medium(2), High(3) sensitivity to compound",[2]; Melanoma LOX IMVI CL10001,2
same,"classification of cell line as Low(1), Medium(2), High(3) sensitivity to compound",[2]; Melanoma M14 CL10014,3
same,"classification of cell line as Low(1), Medium(2), High(3) sensitivity to compound",[2]; Melanoma MALME-3M CL10002,2
same,"classification of cell line as Low(1), Medium(2), High(3) sensitivity to compound",[2]; Melanoma SK-MEL-2 CL10005,2
same,"classification of cell line as Low(1), Medium(2), High(3) sensitivity to compound",[2]; Melanoma SK-MEL-28 CL10008,1
same,sensitivity classification Low(1)/Medium(2)/High(3),[2]; NSCLC NCI-H23(I) CL1001,2
same,sensitivity classification Low(1)/Medium(2)/High(3),[2]; NSCLC NCI-H332M CL1017,1
same,sensitivity classification Low(1)/Medium(2)/High(3),[2]; NSCLC NCI-H460 CL1021,3
same,sensitivity classification Low(1)/Medium(2)/High(3),[2]; NSCLC NCI-H522 CL1003,2
same,sensitivity classification Low(1)/Medium(2)/High(3),[2]; Ovarian IGROV1 CL6010,1
same,sensitivity classification Low(1)/Medium(2)/High(3),[2]; Ovarian OVCAR-3 CL6001,1
same,sensitivity classification Low(1)/Medium(2)/High(3),[2]; Ovarian OVCAR-4 CL6002,1
same,sensitivity classification Low(1)/Medium(2)/High(3),[2]; Ovarian OVCAR-5 CL6003,1
same,sensitivity classification Low(1)/Medium(2)/High(3),[2]; Ovarian OVCAR-8 CL6005,2
same,sensitivity classification Low(1)/Medium(2)/High(3),[2]; Ovarian SK-OV-3 CL6011,2
same,sensitivity classification Low(1)/Medium(2)/High(3),[2]; Prostate DU-145 CL11003,3
same,sensitivity classification Low(1)/Medium(2)/High(3),[2]; Prostate PC-3(I) CL11001,3
same,sensitivity classification Low(1)/Medium(2)/High(3),[2]; Renal 786-0 CL9018,2
same,sensitivity classification Low(1)/Medium(2)/High(3),[2]; Renal A498 CL9013,2
same,sensitivity classification Low(1)/Medium(2)/High(3),[2]; Renal ACHN CL9023,3
same,sensitivity classification Low(1)/Medium(2)/High(3),[2]; Renal CAKI-1 CL9015,2
same,sensitivity classification Low(1)/Medium(2)/High(3),[2]; Renal RXF-393 CL9016,2
same,sensitivity classification Low(1)/Medium(2)/High(3),[2]; Renal SN12C CL9008,2
same,sensitivity classification Low(1)/Medium(2)/High(3),[2]; Renal TK10 CL9024,2
same,sensitivity classification Low(1)/Medium(2)/High(3),[2]; Renal UO-31 CL9004,1
CN(Cc1cnc2nc(N)nc(N)c2n1)c1ccc(C(=O)N[C@@H](CCC(=O)O)C(=O)O)cc1 [Methotrexate],−Log (GI50),[1]; Leukemia HL-60(I) CL7008,7.4
same,−Log (GI50),[1]; Melanoma M14 CL10014,7.5
same,−Log (GI50),[1]; NSCLC EKVX CL1008,5.0
same,−Log (GI50),[1]; NSCLC HOP-92 CL1029,5.1
same,−Log (GI50),[1]; Renal 786-0 CL9018,7.5
same,"classification of cell line as Low(1), Medium(2), High(3) sensitivity to compound",[2]; Breast BT-549 CL5013,1
same,"classification of cell line as Low(1), Medium(2), High(3) sensitivity to compound",[2]; Breast HS-578T CL5006,1
same,"classification of cell line as Low(1), Medium(2), High(3) sensitivity to compound",[2]; Breast MDA-MB-231 CL5005,1
same,"classification of cell line as Low(1), Medium(2), High(3) sensitivity to compound",[2]; Breast T-47D CL5014,1
same,"classification of cell line as Low(1), Medium(2), High(3) sensitivity to compound",[2]; CNS SF-268 CL12014,2
same,"classification of cell line as Low(1), Medium(2), High(3) sensitivity to compound",[2]; CNS SF-295 CL12015,3
same,"classification of cell line as Low(1), Medium(2), High(3) sensitivity to compound",[2]; CNS SF-539 CL12016,3
same,"classification of cell line as Low(1), Medium(2), High(3) sensitivity to compound",[2]; CNS U251(I) CL12009,2
same,"classification of cell line as Low(1), Medium(2), High(3) sensitivity to compound",[2]; Colon COLO-250 CL4010,2
same,"classification of cell line as Low(1), Medium(2), High(3) sensitivity to compound",[2]; Colon HCC-2998 CL4002,2
same,"classification of cell line as Low(1), Medium(2), High(3) sensitivity to compound",[2]; Colon HCT-15 CL4015,3
same,"classification of cell line as Low(1), Medium(2), High(3) sensitivity to compound",[2]; Colon HCT-116 CL4003,3
same,"classification of cell line as Low(1), Medium(2), High(3) sensitivity to compound",[2]; Colon KM12 CL4017,2
same,"classification of cell line as Low(1), Medium(2), High(3) sensitivity to compound",[2]; Leukemia HL-60(I) CL7008,2
same,"classification of cell line as Low(1), Medium(2), High(3) sensitivity to compound",[2]; Leukemia K562(I) CL7005,3
same,"classification of cell line as Low(1), Medium(2), High(3) sensitivity to compound",[2]; Leukemia RPMI-8226(I) CL7010,2
same,"classification of cell line as Low(1), Medium(2), High(3) sensitivity to compound",[2]; Leukemia SR CL7019,3
same,"classification of cell line as Low(1), Medium(2), High(3) sensitivity to compound",[2]; Melanoma LOX IMVI CL10001,3
same,"classification of cell line as Low(1), Medium(2), High(3) sensitivity to compound",[2]; Melanoma SK-MEL-2 CL10005,1
same,"classification of cell line as Low(1), Medium(2), High(3) sensitivity to compound",[2]; Melanoma SK-MEL-5 CL10007,2
same,"classification of cell line as Low(1), Medium(2), High(3) sensitivity to compound",[2]; Melanoma SK-MEL-28 CL10008,1
same,"classification of cell line as Low(1), Medium(2), High(3) sensitivity to compound",[2]; Melanoma UACC-62 CL10020,3
same,"classification of cell line as Low(1), Medium(2), High(3) sensitivity to compound",[2]; NSCLC A549/ATCC CL1004,3
same,"classification of cell line as Low(1), Medium(2), High(3) sensitivity to compound",[2]; NSCLC EKVX CL1008,1
same,"classification of cell line as Low(1), Medium(2), High(3) sensitivity to compound",[2]; NSCLC HOP-62 CL1026,2
same,"classification of cell line as Low(1), Medium(2), High(3) sensitivity to compound",[2]; NSCLC HOP-92 CL1029,1
same,sensitivity classification Low(1)/Medium(2)/High(3),[2]; NSCLC NCI-H23(I) CL1001,2
same,"classification of cell line as Low(1), Medium(2), High(3) sensitivity to compound",[2]; NSCLC NCI-H226 CL1013,1
same,sensitivity classification Low(1)/Medium(2)/High(3),[2]; NSCLC NCI-H332M CL1017,2
same,sensitivity classification Low(1)/Medium(2)/High(3),[2]; NSCLC NCI-H460 CL1021,3
same,sensitivity classification Low(1)/Medium(2)/High(3),[2]; Ovarian IGROV1 CL6010,2
same,sensitivity classification Low(1)/Medium(2)/High(3),[2]; Ovarian OVCAR-3 CL6001,2
same,sensitivity classification Low(1)/Medium(2)/High(3),[2]; Ovarian OVCAR-4 CL6002,1
same,sensitivity classification Low(1)/Medium(2)/High(3),[2]; Ovarian OVCAR-5 CL6003,2
same,sensitivity classification Low(1)/Medium(2)/High(3),[2]; Prostate DU-145 CL11003,2
same,sensitivity classification Low(1)/Medium(2)/High(3),[2]; Renal A498 CL9013,1
same,sensitivity classification Low(1)/Medium(2)/High(3),[2]; Renal ACHN CL9023,2
same,sensitivity classification Low(1)/Medium(2)/High(3),[2]; Renal RXF-393 CL9016,1
same,sensitivity classification Low(1)/Medium(2)/High(3),[2]; Renal SN12C CL9008,3
same,sensitivity classification Low(1)/Medium(2)/High(3),[2]; Renal TK10 CL9024,1
same,sensitivity classification Low(1)/Medium(2)/High(3),[2]; Renal UO-31 CL9004,2
